Reference: ChEMBL document CHEMBL1201861, “Genomics of Drug Sensitity in Cancer screening data, Wellcome Trust Sanger Institute”

How the values were obtained:
Assay in all cases: cells
Settings in all cases: Homo sapiens
COR-L88 = type: functional, cell-based;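 note: growth inhibition of COR-L88 cells, read out with a cell viability assay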
Description: SANGER: Inhibition of human COR-L88 cell growth in a cell viability assay.

CP66-MEL = type: functional, cell-based;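 note: growth inhibition of CP66-MEL cells determined in a cell viability assay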
Description: SANGER: Inhibition of human CP66-MEL cell growth in a cell viability assay.

CW-2 = type: functional, cell-based;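 note: growth inhibition of CW-2 cells, read out by a cell viability assay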
Description: SANGER: Inhibition of human CW-2 cell growth in a cell viability assay.

Calu-6 = type: functional, cell-based;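 note: growth of human Calu-6 cells, read out by a cell viability assay, IC50 marking inhibition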
Description: SANGER: Inhibition of human Calu-6 cell growth in a cell viability assay.

D283 Med = type: functional, cell-based
Description: SANGER: Inhibition of human D-283MED cell growth in a cell viability assay.

D-502MG = type: functional, cell-based
Description: SANGER: Inhibition of human D-502MG cell growth in a cell viability assay.

DB = type: functional, cell-based
Description: SANGER: Inhibition of human DB cell growth in a cell viability assay.

DEL = type: functional, cell-based;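 note: growth inhibition of the human DEL cell line, read out with a cell viability assay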
Description: SANGER: Inhibition of human DEL cell growth in a cell viability assay.

DOHH-2 = type: functional, cell-based;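 note: growth inhibition of human DOHH-2 cells, read out with a cell viability assay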
Description: SANGER: Inhibition of human DOHH-2 cell growth in a cell viability assay.

ES3 = type: functional, cell-based;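 note: growth inhibition of ES3 cells, read out with a cell viability assay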
Description: SANGER: Inhibition of human ES3 cell growth in a cell viability assay.

ES5 = type: functional, cell-based;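 note: growth inhibition of human ES5 cells, read out by a cell viability assay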
Description: SANGER: Inhibition of human ES5 cell growth in a cell viability assay.

ES8 = type: functional, cell-based;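 note: growth inhibition of human ES8 cells, read out with a cell viability assay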
Description: SANGER: Inhibition of human ES8 cell growth in a cell viability assay.

EW-1 = type: functional, cell-based;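 note: growth inhibition of the human EW-1 cell line, read out by a cell viability assay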
Description: SANGER: Inhibition of human EW-1 cell growth in a cell viability assay.

GAK = type: functional, cell-based;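 note: cell growth inhibition read out by a cell viability assay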
Description: SANGER: Inhibition of human GAK cell growth in a cell viability assay.

GI-ME-N = type: functional, cell-based;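 note: growth inhibition of human GI-ME-N cells, read out with a cell viability assay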
Description: SANGER: Inhibition of human GI-ME-N cell growth in a cell viability assay.

GT3TKB = type: functional, cell-based;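 note: growth inhibition of the cell line, read out with a cell viability assay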
Description: SANGER: Inhibition of human GT3TKB cell growth in a cell viability assay.

HH = type: functional, cell-based
Description: SANGER: Inhibition of human HH cell growth in a cell viability assay.

HL-60 = type: functional, cell-based;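 note: growth inhibition of human HL-60 cells, read out with a cell viability assay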
Description: SANGER: Inhibition of human HL-60 cell growth in a cell viability assay.

HT-144 = type: functional, cell-based
Description: SANGER: Inhibition of human HT-144 cell growth in a cell viability assay.

HuTu80 = type: functional, cell-based, HUTU-80;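 note: growth inhibition of HuTu80 human cells, determined with a cell viability readout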
Description: SANGER: Inhibition of human HUTU-80 cell growth in a cell viability assay.

IA-LM = type: functional, cell-based;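 note: cell viability assay measuring growth inhibition of human IA-LM cells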
Description: SANGER: Inhibition of human IA-LM cell growth in a cell viability assay.

IST-MES1 = type: functional, cell-based;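 note: growth inhibition of IST-MES1 cells, measured with a cell viability assay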
Description: SANGER: Inhibition of human IST-MES1 cell growth in a cell viability assay.

J-RT3-T3-5 = type: functional, cell-based;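 note: cell viability assay measuring growth inhibition of human J-RT3-T3-5 cells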
Description: SANGER: Inhibition of human J-RT3-T3-5 cell growth in a cell viability assay.

JAR = type: functional, cell-based;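 note: growth inhibition of human JAR cells determined with a cell viability assay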
Description: SANGER: Inhibition of human JAR cell growth in a cell viability assay.

JVM-2 = type: functional, cell-based;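 note: growth inhibition of JVM-2 cells determined by a cell viability assay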
Description: SANGER: Inhibition of human JVM-2 cell growth in a cell viability assay.

K5 = type: functional, cell-based
Description: SANGER: Inhibition of human K5 cell growth in a cell viability assay.

KALS-1 = type: functional, cell-based;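 note: growth inhibition of KALS-1 cells, determined with a cell viability assay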
Description: SANGER: Inhibition of human KALS-1 cell growth in a cell viability assay.

KARPAS-299 = type: functional, cell-based
Description: SANGER: Inhibition of human KARPAS-299 cell growth in a cell viability assay.

KARPAS-45 = type: functional, cell-based;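 note: inhibition of cell line growth, read out through a viability assay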
Description: SANGER: Inhibition of human KARPAS-45 cell growth in a cell viability assay.

KM12 = type: functional, cell-based;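 note: KM12 cell growth inhibition, read out with a cell viability assay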
Description: SANGER: Inhibition of human KM12 cell growth in a cell viability assay.

KMOE-2 = type: functional, cell-based;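 note: growth inhibition of human KMOE-2 cells, read out with a cell viability assay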
Description: SANGER: Inhibition of human KMOE-2 cell growth in a cell viability assay.

L-363 = type: functional, cell-based
Description: SANGER: Inhibition of human L-363 cell growth in a cell viability assay.

LAN-6 = type: functional, cell-based;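 note: growth inhibition of LAN-6 cells, determined with a cell viability assay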
Description: SANGER: Inhibition of human LAN-6 cell growth in a cell viability assay.

LB2518-MEL = type: functional, cell-based;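 note: growth inhibition of human LB2518-MEL cells, measured with a cell viability assay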
Description: SANGER: Inhibition of human LB2518-MEL cell growth in a cell viability assay.

LC-2-ad = type: functional, cell-based;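 note: growth inhibition of human LC-2-ad cells, read out with a cell viability assay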
Description: SANGER: Inhibition of human LC-2-ad cell growth in a cell viability assay.

LOX IMVI = type: functional, cell-based
Description: SANGER: Inhibition of human LOXIMVI cell growth in a cell viability assay.

LU-134-A = type: functional, cell-based
Description: SANGER: Inhibition of human LU-134-A cell growth in a cell viability assay.

Lu-65 = type: functional, cell-based;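 note: growth inhibition of Lu-65 cancer cells, read out by a cell viability assay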
Description: SANGER: Inhibition of human LU-65 cell growth in a cell viability assay.

MEG-01 = type: functional, cell-based;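 note: growth inhibition of MEG-01 cells, read out by a cell viability assay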
Description: SANGER: Inhibition of human MEG-01 cell growth in a cell viability assay.

MHH-PREB-1 = type: functional, cell-based;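 note: cell viability assay measuring inhibition of proliferation of human MHH-PREB-1 cells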
Description: SANGER: Inhibition of human MHH-PREB-1 cell growth in a cell viability assay.

MLMA = type: functional, cell-based;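 note: growth inhibition of MLMA cells (human), determined through a cell viability readout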
Description: SANGER: Inhibition of human MLMA cell growth in a cell viability assay.

MOLT-4 = type: functional, cell-based;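 note: growth inhibition of MOLT-4 cells, determined with a cell viability readout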
Description: SANGER: Inhibition of human MOLT-4 cell growth in a cell viability assay.

MV4-11 = type: functional, cell-based, MV-4-11;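 note: cell viability readout measuring growth inhibition of human MV-4-11 cells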
Description: SANGER: Inhibition of human MV-4-11 cell growth in a cell viability assay.

MZ7-mel = type: functional, cell-based;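 note: growth inhibition of human MZ7-mel cells, measured by a cell viability assay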
Description: SANGER: Inhibition of human MZ7-mel cell growth in a cell viability assay.

NCI-H1581 = type: functional, cell-based;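 note: cell growth inhibition read out by a viability assay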
Description: SANGER: Inhibition of human NCI-H1581 cell growth in a cell viability assay.

NCI-H1770 = type: functional, cell-based;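 note: growth inhibition of NCI-H1770 cells determined with a viability readout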
Description: SANGER: Inhibition of human NCI-H1770 cell growth in a cell viability assay.

SNU1 = type: functional, cell-based;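 note: growth inhibition of human NCI-SNU-1 cells, measured with a cell viability assay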
Description: SANGER: Inhibition of human NCI-SNU-1 cell growth in a cell viability assay.

NMC-G1 = type: functional, cell-based;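 note: growth inhibition of the NMC-G1 cell line, measured with a cell viability read-out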
Description: SANGER: Inhibition of human NMC-G1 cell growth in a cell viability assay.

NTERA-2-cl-D1 = type: functional, cell-based;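 note: inhibition of cell growth, measured with a cell viability assay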
Description: SANGER: Inhibition of human NTERA-S-cl-D1 cell growth in a cell viability assay.

OCUB-M = type: functional, cell-based;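 note: growth inhibition of the cancer cell line, read out through a cell viability assay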
Description: SANGER: Inhibition of human OCUB-M cell growth in a cell viability assay.

ONS-76 = type: functional, cell-based;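 note: growth inhibition of human ONS-76 cells, read out with a cell viability assay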
Description: SANGER: Inhibition of human ONS-76 cell growth in a cell viability assay.

OVCAR-4 = type: functional, cell-based;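 note: growth inhibition of human OVCAR-4 cells, measured with a cell viability assay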
Description: SANGER: Inhibition of human OVCAR-4 cell growth in a cell viability assay.

QIMR-WIL = type: functional, cell-based;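 note: growth inhibition of QIMR-WIL cells, read out with a cell viability assay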
Description: SANGER: Inhibition of human QIMR-WIL cell growth in a cell viability assay.

RPMI-8866 = type: functional, cell-based
Description: SANGER: Inhibition of human RPMI-8866 cell growth in a cell viability assay.

RXF 393 = type: functional, cell-based;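 note: growth inhibition of human RXF 393 cells, read out with a cell viability assay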
Description: SANGER: Inhibition of human RXF393 cell growth in a cell viability assay.

SBC-1 = type: functional, cell-based;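 note: cell viability assay measuring growth inhibition of the SBC-1 cell line, IC50 being the concentration that halves growth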
Description: SANGER: Inhibition of human SBC-1 cell growth in a cell viability assay.

SHP77 = type: functional, cell-based, SHP-77;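 note: growth inhibition of human SHP-77 cells measured by a cell viability assay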
Description: SANGER: Inhibition of human SHP-77 cell growth in a cell viability assay.

SK-N-FI = type: functional, cell-based;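 note: cell viability assay measuring growth inhibition of human SK-N-FI cells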
Description: SANGER: Inhibition of human SK-N-FI cell growth in a cell viability assay.

SK-PN-DW = type: functional, cell-based;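 note: growth inhibition measured with a viability assay on these cells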
Description: SANGER: Inhibition of human SK-PN-DW cell growth in a cell viability assay.

SW 962 = type: functional, cell-based;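 note: growth inhibition of human SW962 cells, read out by a cell viability assay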
Description: SANGER: Inhibition of human SW962 cell growth in a cell viability assay.

A3-KAW = type: functional, cell-based
Description: SANGER: Inhibition of human A3-KAW cell growth in a cell viability assay.

A4-Fuk = type: functional, cell-based
Description: SANGER: Inhibition of human A4-Fuk cell growth in a cell viability assay.

A704 = type: functional, cell-based
Description: SANGER: Inhibition of human A704 cell growth in a cell viability assay.

TE-10 = type: functional, cell-based
Description: SANGER: Inhibition of human TE-10 cell growth in a cell viability assay.

TE-11 = type: functional, cell-based
Description: SANGER: Inhibition of human TE-11 cell growth in a cell viability assay.

UACC-257 = type: functional, cell-based
Description: SANGER: Inhibition of human UACC-257 cell growth in a cell viability assay.

COc1cc(C)c(Sc2cnc(NC(=O)c3ccc(CNC(C)C(C)(C)C)cc3)s2)cc1C(=O)N1CCN(C(C)=O)CC1 (configuration not stated)
IC50 (COR-L88): > 10200 nM
IC50 (CP66-MEL): > 10200 nM
IC50 (CW-2): > 10200 nM
IC50 (Calu-6): > 10200 nM
IC50 (D283 Med): > 10200 nM
IC50 (D-502MG): > 10200 nM
IC50 (DB): > 10200 nM
IC50 (DEL): > 10200 nM
IC50 (DOHH-2): > 10200 nM
IC50 (ES3): 8900 nM
IC50 (ES5): > 10200 nM
IC50 (ES8): > 10200 nM
IC50 (EW-1): 3110 nM
IC50 (GAK): > 10200 nM
IC50 (GI-ME-N): 4300 nM
IC50 (GT3TKB): > 10200 nM
IC50 (HH): > 10200 nM
IC50 (HL-60): > 10200 nM
IC50 (HT-144): 3340 nM
IC50 (HuTu80): > 10200 nM
IC50 (IA-LM): 5390 nM
IC50 (IST-MES1): > 10200 nM
IC50 (J-RT3-T3-5): > 10200 nM
IC50 (JAR): > 10200 nM
IC50 (JVM-2): > 10200 nM
IC50 (K5): > 10200 nM
IC50 (KALS-1): > 10200 nM
IC50 (KARPAS-299): > 10200 nM
IC50 (KARPAS-45): > 10200 nM
IC50 (KM12): 2840 nM
IC50 (KMOE-2): > 10200 nM
IC50 (L-363): 4940 nM
IC50 (LAN-6): 7290 nM
IC50 (LB2518-MEL): > 10200 nM
IC50 (LC-2-ad): 9390 nM
IC50 (LOX IMVI): > 10200 nM
IC50 (LU-134-A): > 10200 nM
IC50 (Lu-65): > 10200 nM
IC50 (MEG-01): > 10200 nM
IC50 (MHH-PREB-1): > 10200 nM
IC50 (MLMA): > 10200 nM
IC50 (MOLT-4): > 10200 nM
IC50 (MV4-11): 5880 nM
IC50 (MZ7-mel): > 10200 nM
IC50 (NCI-H1581): > 10200 nM
IC50 (NCI-H1770): > 10200 nM
IC50 (SNU1): > 10200 nM
IC50 (NMC-G1): 7160 nM
IC50 (NTERA-2-cl-D1): 8790 nM
IC50 (OCUB-M): > 10200 nM
IC50 (ONS-76): > 10200 nM
IC50 (OVCAR-4): 9620 nM
IC50 (QIMR-WIL): 10100 nM
IC50 (RPMI-8866): > 10200 nM
IC50 (RXF 393): > 10200 nM
IC50 (SBC-1): > 10200 nM
IC50 (SHP77): > 10200 nM
IC50 (SK-N-FI): > 10200 nM
IC50 (SK-PN-DW): 10200 nM
IC50 (SW 962): 8130 nM
IC50 (A3-KAW): > 10200 nM
IC50 (A4-Fuk): 1620 nM
IC50 (A704): > 10200 nM
IC50 (TE-10): > 10200 nM
IC50 (TE-11): > 10200 nM
IC50 (UACC-257): > 10200 nM

Cc1n[nH]c2ccc(-c3cncc(OC[C@@H](N)Cc4c[nH]c5ccccc45)c3)cc12 [A-443654]
IC50 (COR-L88): 738 nM
IC50 (CP66-MEL): 459 nM
IC50 (CW-2): > 1020 nM
IC50 (Calu-6): 137 nM
IC50 (D283 Med): > 1020 nM
IC50 (D-502MG): > 1020 nM
IC50 (DB): 375 nM
IC50 (DEL): 231 nM
IC50 (DOHH-2): 240 nM
IC50 (ES3): > 1020 nM
IC50 (ES5): > 1020 nM
IC50 (ES8): 151 nM
IC50 (EW-1): 221 nM
IC50 (GAK): > 1020 nM
IC50 (GI-ME-N): 278 nM
IC50 (GT3TKB): > 1020 nM
IC50 (HH): 223 nM
IC50 (HL-60): 500 nM
IC50 (HT-144): 153 nM
IC50 (HuTu80): 114 nM
IC50 (IA-LM): 200 nM
IC50 (IST-MES1): > 1020 nM
IC50 (J-RT3-T3-5): 185 nM
IC50 (JAR): 156 nM
IC50 (JVM-2): > 1020 nM
IC50 (K5): 428 nM
IC50 (KALS-1): 203 nM
IC50 (KARPAS-299): 473 nM
IC50 (KARPAS-45): 296 nM
IC50 (KM12): 141 nM
IC50 (KMOE-2): > 1020 nM
IC50 (L-363): 153 nM
IC50 (LAN-6): 886 nM
IC50 (LB2518-MEL): 397 nM
IC50 (LC-2-ad): 22.2 nM
IC50 (LOX IMVI): 797 nM
IC50 (LU-134-A): 363 nM
IC50 (Lu-65): > 1020 nM
IC50 (MEG-01): 814 nM
IC50 (MHH-PREB-1): 271 nM
IC50 (MLMA): 447 nM
IC50 (MOLT-4): 131 nM
IC50 (MV4-11): 57.7 nM
IC50 (MZ7-mel): 564 nM
IC50 (NCI-H1581): 606 nM
IC50 (NCI-H1770): > 1020 nM
IC50 (SNU1): 400 nM
IC50 (NMC-G1): 880 nM
IC50 (NTERA-2-cl-D1): 27.6 nM
IC50 (OCUB-M): 25.7 nM
IC50 (ONS-76): 444 nM
IC50 (OVCAR-4): 243 nM
IC50 (QIMR-WIL): 256 nM
IC50 (RPMI-8866): > 1020 nM
IC50 (RXF 393): 657 nM
IC50 (SBC-1): 160 nM
IC50 (SHP77): > 1020 nM
IC50 (SK-N-FI): 845 nM
IC50 (SK-PN-DW): 222 nM
IC50 (SW 962): 255 nM
IC50 (A3-KAW): 196 nM
IC50 (A4-Fuk): 103 nM
IC50 (A704): 261 nM
IC50 (TE-10): 89.4 nM
IC50 (TE-11): 130 nM
IC50 (UACC-257): > 1020 nM
